# Patent US20220117966A1, “METHOD OF TREATING FIBROSIS” (AstraZeneca AB, priority 2019, published 2022)
# Read-outs that look alike come from different tables or passages of the source.
# How the values were obtained:
# [1] = test system: TGFβ-stimulated NHLF (normal human lung fibroblasts); experiment: cells; format: cell-based; conditions: for IC50: Homo sapiens, Fibroblast; for cell viability / cell death / inhibition of αSMA (FIG. 2): TGF-beta1-stimulated human lung fibroblasts
# Description: Normal human lung fibroblasts from a healthy donor (passage 5) were seeded in 96-well culture plates with 50,000 cells per cm^2 in DMEM culture medium with 10% FBS and 1% penicillin-streptomycin. […]. The cells were incubated for one hour before 0.123 ng/ml TGF-beta1 was added on top of the compound/vehicle treatment and the cells were incubated for 24 hours.
# After 24 hours the medium was collected and analysed for IL-6 and the cells were either lysed for RNA isolation, DNA-synthesis and TaqMan quantitative PCR or fixated and stained for alpha-smooth muscle actin (αSMA) and with Hoechst nuclear staining. The percentage of cells staining positive for αSMA and thereby displaying the myofibroblast phenotype was determined using high content image analysis. The Ct-values from the quantitative PCR were normalised against the geomean Ct values of two reference-genes and presented as fold-expression over those reference genes (2^-delta Ct).
# [2] = test system: Airway basal cells (ABC) from IPF patients; experiment: Organoid formation assay; format: cell-based, human; conditions: for organoid formation of airway basal cells (FIGS. 4, 5 and 6): saracatinib 8, 25, 75, 210 or 600 nM, pirfenidone 1 mM, nintedanib 1 μM
# Description: Airway Basal Cells (ABCs) either derived from IPF patients or Healthy Volunteers (HV) were cultured in Matrigel® (Corning in a transwell system with or without lung fibroblasts either derived from patients with IPF or normal lung for up-to 35 days in the incubator (5% CO2, 37° C.)).
# [3] = IPF patients; cited from earlier work
# [4] = cited from earlier work
# [5] = IPF patients, cited from earlier work
# [6] = Pharmacokinetics (PK) of saracatinib in the bleomycin model; format: in vivo; conditions: mouse, mice; for Cmax: Day 21, dosed 1 hour prior to terminal blood draw; for concentration at 21 day: Day 21, not dosed before blood draw, read-out: Cmin +/− SD
# [7] = test system: bleomycin (Bleo) induced lung injury and fibrosis; experiment: Bleomycin model, lung hydroxyproline levels; format: in vivo, mice; conditions: saracatinib 1, 3 or 10 mg/kg BID vs pirfenidone 200 mg/kg BID and nintedanib 30 mg/kg BID, from day 7, day 21
# Description: Bleomycin Sulfate was obtained from Sigma-Aldrich. The IU conversion to enzyme units (U) is approximately 1.5-2 U/mg. For delivery of 4 U/kg in 50 μL, a solution of […] was prepared in 0.9% NaCl. Bleomycin or vehicle was dosed on Day 0 intranasally. […] Body weights and clinical observations were recorded on days 7, 14, and 21. On day 21, mice were euthanized by cervical dislocation. One side of lung tissue was dissected and analyzed for hydroxyproline levels as an indicator of local collagen deposition, and the other side lung was fixed in Formalin for histopathology (Quantitative staining with sirius red).
# [8] = test system: human primary cell-based systems (BioMAP); experiment: DiscoverX BioMAP Combo ELECT panel, relative protein expression; conditions: saracatinib 3.3 μM, relative to vehicle control
# Description: BioMAP panels consist of human primary cell-based systems designed to model different aspects of the human body in an in vitro format. The 12 systems available in the Diversity PLUS panel allow test agent characterization in an unbiased way across a broad set of systems modelling various human disease states. BioMAP systems are constructed with one or more primary cell types from healthy human donors, with stimuli (such as cytokines or growth factors) added to capture relevant signalling networks that naturally occur in human tissue or pathological conditions. Systems recapitulate aspects of the systemic immune response including monocyte-driven Th1 inflammation (LPS system) or T cell stimulation (SAg system), chronic Th1 inflammation driven by macrophage activation (IMphg system) and the T cell-dependent activation of B cells that occurs in germinal centers (BT system). The BE3C system (Th1) and the BF4T system (Th2) represent airway inflammation of the lung, while the MyoF system models myofibroblast-lung tissue remodelling.
# Each test agent generates a signature BioMAP profile that is created from the changes in protein biomarker readouts within individual system environments. Biomarker readouts (7-17 per system) are selected for therapeutic and biological relevance, are predictive for disease outcomes or specific drug effects and are validated using agents with known mechanism of action (MoA). Each readout is measured quantitatively by immune-based methods that detect protein (e.g., ELISA) or functional assays that measure proliferation and viability. BioMAP readouts are diverse and include cell surface receptors, cytokines, chemokines, matrix molecules and enzymes.
# In the Combo ELECT panel, a 4×4 combination array is created to test all mixtures of two serially diluted single test agents/drugs.
# [9] = Saracatinib AD Phase IIa (52 weeks), safety and tolerability; format: in vivo, human; conditions: Alzheimer's Disease patients
# [10] = molecular target: Lyn (Homo sapiens, UniProt P07948); conditions: cited from earlier work
# Sequence of Lyn (P07948 whole entry): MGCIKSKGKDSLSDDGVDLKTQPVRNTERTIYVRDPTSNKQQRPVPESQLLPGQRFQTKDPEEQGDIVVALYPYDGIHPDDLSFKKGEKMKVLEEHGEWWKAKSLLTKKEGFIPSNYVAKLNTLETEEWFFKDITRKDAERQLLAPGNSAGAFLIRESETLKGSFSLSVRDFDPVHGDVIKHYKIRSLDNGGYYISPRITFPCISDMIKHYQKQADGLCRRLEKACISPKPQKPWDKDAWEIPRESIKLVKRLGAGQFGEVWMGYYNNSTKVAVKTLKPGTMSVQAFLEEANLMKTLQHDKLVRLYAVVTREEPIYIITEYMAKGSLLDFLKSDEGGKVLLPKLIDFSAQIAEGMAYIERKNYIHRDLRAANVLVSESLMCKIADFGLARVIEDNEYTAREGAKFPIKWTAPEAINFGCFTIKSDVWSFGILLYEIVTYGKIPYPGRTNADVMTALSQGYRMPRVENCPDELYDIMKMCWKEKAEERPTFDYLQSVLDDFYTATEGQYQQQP
# [11] = 24 h, read-out: Mean IC50 ACTA2 mRNA
# [12] = 24 h, read-out: Mean IC50 COL1A1 mRNA
# [13] = 24 h, read-out: Mean IC50 COL3A1 mRNA
# [14] = 24 h, read-out: Mean IC50 FN1 mRNA
# [15] = 24 h, read-out: Mean IC50 IL-6 protein
# [16] = 100 mg or 125 mg per day, 52 weeks, n = 79
compound,measurement,setting,value
COC(=O)c1ccc2c(c1)NC(=O)/C2=C(\Nc1ccc(N(C)C(=O)CN2CCN(C)CC2)cc1)c1ccccc1 [Nintedanib],IC50,[1]; [11],1750 nM
same,IC50,[1]; [12],536 nM
same,IC50,[1]; [13],725 nM
same,IC50,[1]; [14],624 nM
same,IC50,[1]; [15],311 nM
same,IC50,"[1]; 24 h, read-out: Mean IC50 αSMA",601 nM
same,cell viability / cell death,[1],some evidence of cell death
same,inhibition of αSMA (FIG. 2),[1],"inhibited αSMA, but at supra-therapeutic concentrations"
same,"organoid formation of airway basal cells (FIGS. 4, 5 and 6)",[2],little to no effect
same,"Treatment Discontinuations, clinical studies IPF",[3],21% (15%)
same,"Treatment Discontinuations, Real-World data",[4],26.3%
Cc1ccc(=O)n(-c2ccccc2)c1 [Pirfenidone],IC50,"[1]; TGFβ-stimulated NHLF, healthy donor 197 (n = 3), 24 hours, read-out: Mean IC50 ACTA2 mRNA",> 10000 nM
same,IC50,"[1]; TGFβ-stimulated NHLF, healthy donor 197 (n = 3), 24 hours, read-out: Mean IC50 COL1A1 mRNA",> 10000 nM
same,IC50,"[1]; TGFβ-stimulated NHLF, healthy donor 197 (n = 3), 24 hours, read-out: Mean IC50 COL3A1 mRNA",> 10000 nM
same,IC50,"[1]; TGFβ-stimulated NHLF, healthy donor 197 (n = 3), 24 hours, read-out: Mean IC50 FN1 mRNA",> 10000 nM
same,IC50,"[1]; TGFβ-stimulated NHLF, healthy donor 197 (n = 3), 24 hours, read-out: Mean IC50 IL-6 protein",> 10000 nM
same,IC50,"[1]; TGFβ-stimulated NHLF, healthy donor 197 (n = 3), 24 hours, read-out: Mean IC50 αSMA",> 10000 nM
same,cell viability / cell death,[1],some evidence of cell death
same,inhibition of αSMA (FIG. 2),[1],"inhibited αSMA, but at supra-therapeutic concentrations"
same,"organoid formation of airway basal cells (FIGS. 4, 5 and 6)",[2],little to no effect
same,Anorexia,"[5]; 52 weeks, n = 623",13%
same,Diarrhea,"[5]; 52 weeks, n = 623",24.6%
same,Nausea,"[5]; 52 weeks, n = 623",35.5%
same,Vomiting,"[5]; 52 weeks, n = 623",12.7%
same,Weight Decrease,"[5]; 52 weeks, n = 623",10%
same,Decreased Appetite,"[5]; Pirfenidone Medical Review, pirfenidone n = 345",9%^3
same,"Treatment Discontinuations, clinical studies IPF",[5],14.6% (9.6%)
same,"Treatment Discontinuations, Real-World data",[4],20.9%
"CN1CCN(CCOc2cc(OC3CCOCC3)c3c(Nc4c(Cl)ccc5c4OCO5)ncnc3c2)CC1 [Saracatinib, N-(5-chlorobenzo[d][1,3]dioxol-4-yl)-7-(2-(4-methylpiperazin-1-yl)ethoxy)-5-((tetrahydro-2H-pyran-4-yl)oxy)quinazolin-4-amine]",Cmax,[6]; 1 mg/kg BID oral gavage,71.5 nM
same,concentration at 21 day,[6]; 1 mg/kg BID oral gavage,2.52 nM
same,Cmax,[6]; 3 mg/kg BID oral gavage,139 nM
same,concentration at 21 day,[6]; 3 mg/kg BID oral gavage,8.41 nM
same,Cmax,[6]; 10 mg/kg BID oral gavage,390 nM
same,concentration at 21 day,[6]; 10 mg/kg BID oral gavage,31.8 nM
same,hydroxyproline levels after bleomycin induced lung injury and fibrosis (FIG. 1),[7],compares favourably to pirfenidone (at much lower doses) and is potentially superior to nintedanib at clinically relevant doses
same,IC50,[1]; [11],186 nM
same,IC50,[1]; [12],1010 nM
same,IC50,[1]; [13],7990 nM
same,IC50,[1]; [14],526 nM
same,IC50,[1]; [15],128 nM
same,IC50,"[1]; 24 h, read-out: Mean IC50 αSMA",185 nM
same,cell viability / cell death,[1],without impacting cell viability
same,inhibition of αSMA (FIG. 2),[1],dose-dependent inhibition of αSMA
same,cytotoxicity,"[2]; ABC organoids, saracatinib 8 to 600 nM",non-cytotoxic
same,"organoid formation of airway basal cells (FIGS. 4, 5 and 6)",[2],differentiated and uniquely efficacious
same,expression of MMP-9 (FIG. 7),[8],decreased expression
same,expression of N-cadherin (FIG. 7),[8],decreased expression
same,expression of TIMP-1 (FIG. 7),[8],decreased expression
same,expression of VCAM-1 (FIG. 7),[8],increased expression
same,expression of a-SMA (FIG. 7),[8],increased expression
same,expression of sIL-6 (FIG. 7),[8],decreased expression
same,expression of sIL-8 (FIG. 7),[8],decreased expression
same,expression of sVEGF (FIG. 7),[8],decreased expression
same,"Treatment Discontinuations, clinical studies AD",[9],8.2% (1.2%)
same,Anorexia,[9]; [16],3%
same,Decreased Appetite,[9]; [16],9%
same,Diarrhea,[9]; [16],27.8%
same,Nausea,[9]; [16],12.7%
same,Vomiting,[9]; [16],5.1%
same,Weight Decrease,[9]; [16],10%
same,IC50,[10],5 nM
